Measurements as given in ChEMBL document CHEMBL3108702, “Purinergic receptor P2X₇: a novel target for anti-inflammatory therapy” (Bioorg Med Chem, 2014).

Target: T1, P2X purinoceptor 7 (Homo sapiens, UniProt Q99572)
T1 sequence (Q99572 whole entry): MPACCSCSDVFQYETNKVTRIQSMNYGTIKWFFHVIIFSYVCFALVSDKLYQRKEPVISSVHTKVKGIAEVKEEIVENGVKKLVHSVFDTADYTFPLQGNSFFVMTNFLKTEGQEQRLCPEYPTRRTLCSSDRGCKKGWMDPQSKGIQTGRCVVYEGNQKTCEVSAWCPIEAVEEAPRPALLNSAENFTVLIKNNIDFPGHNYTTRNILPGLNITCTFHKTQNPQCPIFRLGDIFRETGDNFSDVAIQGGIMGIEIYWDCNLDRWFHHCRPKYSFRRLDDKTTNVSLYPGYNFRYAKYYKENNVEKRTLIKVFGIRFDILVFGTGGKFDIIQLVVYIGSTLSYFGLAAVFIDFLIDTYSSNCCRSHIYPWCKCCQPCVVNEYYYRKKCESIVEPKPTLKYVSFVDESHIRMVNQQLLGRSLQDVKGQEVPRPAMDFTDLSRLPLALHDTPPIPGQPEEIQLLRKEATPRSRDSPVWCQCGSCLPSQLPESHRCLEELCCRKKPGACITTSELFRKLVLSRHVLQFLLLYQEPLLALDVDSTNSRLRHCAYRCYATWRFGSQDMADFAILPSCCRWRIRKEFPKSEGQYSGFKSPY
Assay: Antagonist activity at P2X7 receptor (unknown origin)

IC50 (read-out: pIC50 (converted)) [nM] | IC50 (read-out: IC50) [nM] | Compound
7.94 |  | O=C(NCC12CC3CC(CC(C3)C1)C2)c1ccccc1Cl
5.01 |  | COc1cccc(NC(=O)CC23CC4CC(CC(C4)C2)C3)c1C
10 |  | COc1ccc(C)c(NC(=O)CC23CC4CC(CC(C4)C2)C3)c1
398 |  | O=C(NCC12CC3CC(CC(C3)C1)C2)c1ccc(Cl)cc1Cl
> 1000 |  | O=C(CN1CC(=O)N(c2ccccc2)C1=O)NCc1ccc(F)cc1Cl
3980 |  | CN(Cc1ccc(Cl)cc1)CC12CC3CC(CC(C3)C1)C2
398 |  | CC(NC(=O)c1ccc(Cl)cc1)C12CC3CC(CC(C3)C1)C2 (stereo not drawn)
> 1000 |  | Cc1nn(-c2ccccc2)c(C)c1NC(=O)NCc1ccc(F)cc1Cl
501 |  | O=C(CC12CC3CC(CC(C3)C1)C2)Nc1ccc(Cl)cc1
9.12 |  | Clc1cccc(-n2ncnc2NCc2cccnc2)c1Cl
 | 65.3 | CN([C@@H](Cc1ccc(OS(=O)(=O)c2cccc3cnccc23)cc1)C(=O)N1CCN(Cc2ccccc2)CC1)S(=O)(=O)c1cccc2cnccc12
251 |  | Cc1cccc(-c2nnnn2Cc2cccnc2)c1C
> 1000 |  | Cc1nn(-c2ccccc2)c(C)c1Cc1nnc(Cc2ccc(Cl)cc2Cl)o1
126 |  | O=C(NCC12CC3CC(C1)CC(CNC(=O)c1ccc(Cl)cc1Cl)(C3)C2)c1ccc(Cl)cc1Cl
3980 |  | COc1cccc(-c2nnnn2Cc2cccnc2)c1OC
63.1 |  | COc1ccc(Cl)c(NC(=O)CC23CC4CC(CC(C4)C2)C3)c1
 | 94.4 | CN([C@@H](Cc1ccc(OS(=O)(=O)c2cccc3cnccc23)cc1)C(=O)N1CCN(c2ccccc2)CC1)S(=O)(=O)c1cccc2cnccc12
3980 |  | CN(CC12CC3CC(CC(C3)C1)C2)C(=O)c1ccc(Cl)cc1
